# Patent US12016834B2, “Small molecule inhibitors of SLC25A1” (GEORGETOWN UNIVERSITY, priority 2017, dated 2024)
# Experiments:
# [1] = system: MP1 cells; assay: Seahorse OCR and ATP in patient-derived cells; format: cell-based, human; conditions: GMSC versus monolayer; treatment 3 hours
# Description: (§1) Primary lung cancer cultures and GMSC. Surgical samples were minced and digested with dispase (50 U/ml) in DMEM media containing 5% serum for 1 hour. Pleural effusions were centrifuged, washed once in PBS, and then plated. All primary cultures were initially grown on 6-well plates pre-coated with 2% Geltrex (Life Technologies; Carlsbad, CA) and 1% Maxgel (Sigma Aldrich). Maxgel is a humanized matrix, native and non-denatured. The inclusion of Maxgel in the system enhanced the initial attachment of primary tumor cells, partially because Maxgel provides a more natural ECM conformational substrate. The day after plating, the media containing unattached cells was typically transferred to a fresh plate, in most of cases generating new attached cultures. The media (Stem Cell Media) is the DMEM/F12 (Thermo-Fisher #11320-033 basic media) supplemented with the following components: Insulin-Transferrin-Sodium selenite (ITS; 1:1000; Sigma #11884); glutamine (Thermo-Fisher) to 4 mM final concentration; sodium pyruvate (Thermo-Fisher) to 2 mM final concentration; rock inhibitor (Y-27632) 10 micrograms/mL; 2-5% Knock Out Serum Replacement (KNOSR, Thermo-Fisher #10828-028); 0.5% ALBUMAX-(Lipid enriched BSA; Thermo-Fisher #11020-021); N2 Supplement (Thermo-Fisher) 1:250; EGF (5 ng/ml; Peprotech); hFGF (20 ng/ml; Bechman); and IGF-1 (Peprotech; 10-20 ng/ml).
# (§2) Seahorse extracellular flux analyzer experiments. Cells derived from spheres or monolayer cultures were dissociated and plated overnight at 12,000 cells/well in DMEM with 10% FBS, 5 mM glucose, 1 mM pyruvate, 2 mM glutamine.
# (§3) For the mitochondrial stress test, the media was replaced with DMEM without FBS or bicarbonate, containing 5 mM glucose, 1 mM pyruvate, 2 mM glutamine and placed in a CO2 free incubator at 37° C. for 1 hour, and then transferred to the Xf96 extracellular flux analyzer (Agilent; Santa Clara, CA). The program consisted of 3 measurements of OCR/ECAR before the injection of each drug: oligomycin (0.5 μM final concentration), FCCP (2 μM) and rotenone/antimycin (0.5 μM of each). For the glycolysis stress test, cells were plated overnight as above, and the media was washed twice the following day with DMEM without FBS, bicarbonate, glucose, glutamine or pyruvate, and incubated in this media in a CO2 free incubator with/without drug treatments at 37° C. for 4 hours. There were 3 measurements of OCR/ECAR before each injection: glucose (10 mM final concentration), oligomycin (0.5 […] (50 mM). For the analysis of glutamine oxidation, the protocol was the same as the glucose stress test, but with glutamine being the only compound injected (final concentration 4 mM) and OCR/ECAR measured for 60 minutes. When spheres were analyzed, they were dissociated with StemPro® Accutase® (Thermo Scientific; Waltham, MA) and plated under the same conditions as above as for the monolayers the day before the assay (H1299 spheres), or in stem cell media (See Stem Cell Media) with the wells coated in 15 μL of 2% geltrex diluted in DMEM:F12 (Thermo Scientific). The results were normalized to cell number.
# [2] = system: MP2 cells; assay: Seahorse OCR and ATP in patient-derived cells; format: cell-based, human
# Description: as §1, §2, §3
# [3] = biological target: SLC25A1 (Homo sapiens, UniProt P53007); assay: Surface plasmon resonance (SPR) binding to recombinant purified SLC25A1; conditions: steady state, 1:1 binding model; human protein
# Description: Surface Plasmon Resonance (SPR). SPR experiments were performed on a Biacore 4000 instrument at room temperature. The NTA sensorchip surface was activated by injecting 0.5 mM NiCl2 for 1 minute. Histidine-tagged recombinant purified SLC25A1 protein (0.07 mg/ml stock concentration) was used as the ligand to capture on the sensor surface. SLC25A1 was dissolved (1:50 dilution) in PBS-P (20 mM phosphate buffer (pH 7.4), 2.7 mM KCl, 137 mM NaCl and 0.05% surfactant P20) buffer and captured onto spots 2 and 4. SLC25A1 was captured to a level of ˜3000. PBS-P was used as the capture running buffer. Small molecules were used as analytes to flow over the ligand immobilized surface. Spot 3 of all flow cells were used as reference. The calculated theoretical Rmax was ˜30 RU based on a 1:1 interaction. The kinetics experiments were performed in the presence of HBS-P (10 mM HEPES (pH7.4), 150 mM NaCl, and 0.05% surfactant P20). The flow rate of all the solutions was maintained at 30 μL/min. The analyte concentrations were 0 μM, […], 6.25 μM, 12.5 μM, 25 μM, 50 μM, and 100 μM. Analyte concentrations showing signs of aggregation were excluded from the analysis. Data were analyzed by Biacore BiaEvaluation software for 1:1 steady state binding model.
# [4] = system: H1299 cells; assay: Citrate levels in mitochondrial or cytoplasmic fractions; format: cell-based, human; conditions: 4 hours
# Description: Cells, reagents, antibodies, primers. The H1299 cell lines and other cell lines employed in this study were obtained from ATCC or from the tissue culture core facility at LCCC. Cells were grown in Dulbecco's Modified Eagle's Medium (DMEM, 25 mM glucose, with glutamine and pyruvate from Invitrogen; Carlsbad, CA) and supplemented with 10% fetal calf serum (FCS). […] The SLC25A1 specific shRNA vectors were purchased from Sigma. The vector expressing human SLC25A1 untagged or Flag-Myc epitope tagged were from Origene; Rockville, MD (#SC120727 and RC200657, respectively). The anti-SLC25A1 antibody used in immuno-blot was from Santa Cruz Biotech, #sc-86392 employed at 1:1000 dilution. Citrate, lactate, and PFK measurements were performed by using commercially available kits (Biovision (Milpitas, CA)).
# Mitochondria isolation and cellular sub-fractionation. Mitochondria and cytoplasmic fractions were prepared as follows. Cells were collected in PBS for 5′, then the pellet was e-suspended in 5 packed cell volumes of mitochondria buffer (250 mM sucrose; 20 mM HEPES (7.4); 10 mM KCl, 1.5 mM MgCl2; 1 mM EDTA; 1 mM EGTA 0.5 M, supplemented with freshly added PMSF and 1 mM […]). Cell lysates were passed through a 25 G needle 10 times, then 5 times through a 27 G needle, followed by incubation on ice for 10-15 minutes. Extracts were centrifuged at 720 G for 5 minutes. The supernatant was centrifuged again at 10000 G and the derived pellet provided the mitochondrial fraction and the supernatant provided the cytoplasmic fraction. To extract the mitochondria for measurement of citrate, the pellet from the previous centrifugation was resuspended in PBS and subjected to 3 cycles of freeze-and-thaw in dry ice immersed in ethanol. The fraction was centrifuged again and re-suspended in PBS. The supernatant (containing cytosolic and membrane fractions) was centrifuged multiple times to eliminate particulate material, and was used as the cytosolic fraction.
# Chain of SLC25A1 (P53007 14-311): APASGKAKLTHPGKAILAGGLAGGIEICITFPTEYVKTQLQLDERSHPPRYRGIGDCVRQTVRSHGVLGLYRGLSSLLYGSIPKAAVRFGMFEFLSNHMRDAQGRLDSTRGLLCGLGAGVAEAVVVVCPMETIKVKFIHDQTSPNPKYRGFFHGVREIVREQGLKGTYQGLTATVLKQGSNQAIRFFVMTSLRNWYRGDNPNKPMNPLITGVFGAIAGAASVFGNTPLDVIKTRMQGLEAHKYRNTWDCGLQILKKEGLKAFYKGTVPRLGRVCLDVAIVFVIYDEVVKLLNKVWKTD
smiles,measurement,setting,value
O=C(O)c1ccccc1NS(=O)(=O)c1ccc(Cl)c([N+](=O)[O-])c1 [CTPI-2],"increase of oxygen consumption rates, basal, SRC and mitochondrial ATP output in GMSC cells",[1],reverted by CTPI-2 more prominently in CSCs than in monolayer cultures
same,"increase of oxygen consumption rates, basal, SRC and mitochondrial ATP output in GMSC cells","[2]; GMSC versus monolayer, treatment 3 hours",reverted by CTPI-2 more prominently in CSCs than in monolayer cultures
same,"basal respiration, SRC and ATP production in cisplatin treated cells",[2]; monolayer cells exposed to cisplatin (FIG. 15A),"blocked basal respiration, SRC and ATP production"
same,Kd,[3],5.3 µM
same,cytoplasmic citrate,[4]; 2D cultures,reduction of cytoplasmic citrate
same,mitochondrial citrate,[4]; 2D cultures,induced accumulation of mitochondrial citrate
same,cytosolic citrate,[4]; spheres,without affecting the cytosolic citrate
same,mitochondrial citrate,[4]; spheres,starkly decreased mitochondrial citrate
